In patent publication US12528801B2 (Givaudan SA, priority 2019, dated 2026):

How the values were obtained:
hTRPM8 = target: T1, hTRPM8 (Homo sapiens, UniProt Q7Z2W7); assay: Assay on TRPM8 modulators: calcium imaging (Fluo-4, Flexstation) in HEK293 cell line stably expressing hTRPM8; format: cell-based; conditions: HEK293 cells stably expressing hTRPM8; calcium influx, Fluo-4, Flexstation 3; sigmoidal dose-response fit
T1 construct: expressed in transfected cells
Outline: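 HEK293 cells stably expressing hTRPM8 were loaded with Fluo-4 AM plus probenecid and kept in HEPES buffer, pH 7.4. Calcium influx to serially diluted compounds was recorded for 120 s. Maximal activation was referenced to solvent control and 31.6 μM menthol, with EC values from sigmoidal dose-response fits.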

[1] = test system: trained group of panelists; assay: Sensory studies in aqueous solution (trained panel, mouth swill); format: in vivo, human; conditions: 10 ppm in aqueous solution; for Time of max. cooling / Max. cooling: 20 mL swilled in the mouth for 60 seconds; for Max. cooling / Cooling after 1 h: panel-averaged cooling score, scale 0 to 10; for Cooling after 1 h: 1 h after swilling
Protocol: The compounds as listed below in Table 2 were dissolved at a concentration of 1 wt-% in propylene glycol. These solutions were then dispensed in appropriate quantities into deionized water containing 0.5 wt-% Poloxamer 407 (which is a hydrophilic non-ionic surfactant, e.g., commercially available from SigmaAldrich) and 0.25 wt-% Cremaphor® RH40 (obtained from BASF) as solubilizer, to obtain the desired final concentration of 10 ppm (parts per million) of the respective compound.
A trained group of panelists evaluated the aqueous solutions containing test compound by swilling 20 mL of the solution in the mouth for 60 seconds, followed by spitting, without rinsing the mouth afterwards for the duration of the evaluation. Panelists evaluated and recorded the cooling performance as well as other sensorial and organoleptic attributes at different timepoints over a period of two hours. Cooling performance was rated on a scale from 0 to 10 with 0 being no effect and 10 being freezing. Scores were averaged for all panelists and the cooling intensity qualified as “none” (score of 0), “low” (score above 0, up to 1), “medium” (score above 1, up to 4) “strong” (score above 4, up to 8) and “freezing” (score above 8), which are provided in Table 2.

[2] = test system: trained group of panelists; assay: Sensory studies in model dentifrice (trained panel, tooth brushing); format: in vivo, human; conditions: 40 ppm in model unflavored dentifrice
Protocol: The compounds listed in Table 3 were dissolved at a concentration of 1 wt-% in propylene glycol^A or benzyl alcohol^B (respective solvents indicated in Table 3). These solutions were then dispersed in appropriate quantities to obtain the desired final concentration of 40 ppm (parts per million) of the test compound into a model, unflavored dentifrice, the formula of which is given below (ingredients obtained from the suppliers respectively indicated in parenthesis).
A trained group of panelists evaluated the dentifrice containing a compound of formula (I), by brushing their teeth with 1 g of the dentifrice using a toothbrush for 60 seconds, followed by spitting, without rinsing the mouth afterwards for the duration of the evaluation. Panelists evaluated and recorded the cooling performance as well as other sensorial and organoleptic attributes at different timepoints over a period of two hours. Cooling performance was rated on a scale from 0 to 10 with 0 being no effect and 10 being freezing. Scores were averaged for all panelists and the cooling intensity qualified as “none” (score of 0), “low” (score above 0, up to 1), “medium” (score above 1, up to 4) “strong” (score above 4, up to 8) and “freezing” (score above 8), which are summarized below in Table 3.

T1 sequence (Q7Z2W7 whole entry): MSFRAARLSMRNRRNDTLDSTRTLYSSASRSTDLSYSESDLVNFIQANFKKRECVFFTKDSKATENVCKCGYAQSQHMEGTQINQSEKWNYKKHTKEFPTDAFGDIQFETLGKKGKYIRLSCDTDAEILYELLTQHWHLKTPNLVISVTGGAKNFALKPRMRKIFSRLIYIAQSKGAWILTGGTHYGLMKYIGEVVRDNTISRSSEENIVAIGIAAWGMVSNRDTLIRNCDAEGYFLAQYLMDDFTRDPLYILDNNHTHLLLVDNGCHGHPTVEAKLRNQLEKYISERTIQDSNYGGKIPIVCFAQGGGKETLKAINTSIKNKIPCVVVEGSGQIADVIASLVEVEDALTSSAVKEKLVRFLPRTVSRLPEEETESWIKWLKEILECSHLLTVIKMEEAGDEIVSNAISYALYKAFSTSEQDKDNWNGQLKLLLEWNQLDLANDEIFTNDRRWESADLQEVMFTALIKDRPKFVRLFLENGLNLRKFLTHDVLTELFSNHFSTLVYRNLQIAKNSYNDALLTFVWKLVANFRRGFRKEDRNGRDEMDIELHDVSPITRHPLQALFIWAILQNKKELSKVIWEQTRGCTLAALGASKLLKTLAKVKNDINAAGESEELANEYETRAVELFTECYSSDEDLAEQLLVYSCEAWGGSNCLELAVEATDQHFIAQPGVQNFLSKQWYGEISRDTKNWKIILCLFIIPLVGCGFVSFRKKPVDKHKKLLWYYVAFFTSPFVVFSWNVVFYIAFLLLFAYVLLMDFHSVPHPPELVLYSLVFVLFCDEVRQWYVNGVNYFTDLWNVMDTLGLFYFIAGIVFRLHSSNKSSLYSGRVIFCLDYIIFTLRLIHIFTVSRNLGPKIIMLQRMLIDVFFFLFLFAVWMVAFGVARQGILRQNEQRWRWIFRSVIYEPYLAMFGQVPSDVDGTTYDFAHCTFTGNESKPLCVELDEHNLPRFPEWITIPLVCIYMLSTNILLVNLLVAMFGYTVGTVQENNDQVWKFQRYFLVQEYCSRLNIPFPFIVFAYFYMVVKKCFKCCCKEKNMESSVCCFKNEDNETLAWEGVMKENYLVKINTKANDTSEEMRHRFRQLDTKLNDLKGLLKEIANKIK

EC50 (hTRPM8) | Compound | other results
< 50 nM | CS[C@H](C)C(=O)N1CCCC[C@@H]1c1ncc(-c2ccc(C)cc2)[nH]1 [Compound 11, (R)-2-(methylthio)-1-((R)-2-(5-(p-tolyl)-1H-imidazol-2-yl)piperidin-1-yl)propan-1-one] | Time of max. cooling [1]: 10 min; Max. cooling [1]: S (S = Strong); Cooling after 1 h [1]: M (M = medium); Cooling after 1 h ([2]; 1 h after brushing, panel-averaged score 0 to 10): M (M = medium); Time of max. cooling ([2]; brushing with 1 g for 60 seconds): 20 min; Max. cooling ([2]; brushing with 1 g for 60 seconds, stock in propylene glycol (A) or benzyl alcohol (B), panel-averaged score 0 to 10): S (S = Strong)
< 50 nM | CSC(C)C(=O)N1CCCCC1c1ncc(-c2ccc(C)s2)[nH]1 (stereo not shown) [Compound 127, 2-(methylthio)-1-(2-(5-(5-methylthiophen-2-yl)-1H-imidazol-2-yl)piperidin-1-yl)propan-1-one] | Time of max. cooling [1]: 10 min; Max. cooling [1]: S (S = Strong); Cooling after 1 h [1]: M (M = medium)
< 50 nM | CSC(C)C(=O)N1CCCCC1c1ncc(-c2ccccc2)[nH]1 (stereo not shown) [Compound 135, 2-(methylthio)-1-(2-(5-phenyl-1H-imidazol-2-yl)piperidin-1-yl)propan-1-one] | Time of max. cooling [1]: 10 min; Max. cooling [1]: M (M = medium); Cooling after 1 h [1]: L (L = Low)
< 50 nM | CSC(C)C(=O)N1CCCCC1c1nc(-c2ccc(C#N)cc2)c[nH]1 (stereo not shown) [Compound 181, 4-(2-(1-(2-(methylthio)propanoyl)piperidin-2-yl)-1H-imidazol-4-yl)benzonitrile] | –
< 50 nM | CSC(C)C(=O)N1CCCCC1c1ncc(-c2ccc(C=O)cc2)[nH]1 (stereo not shown) [Compound 182, 4-(2-(1-(2-(methylthio)propanoyl)piperidin-2-yl)-1H-imidazol-5-yl)benzaldehyde] | –
300 to 1000 nM | CC(CC(F)(F)F)C(=O)N1CCCCC1c1nc(-c2ccccc2)c[nH]1 (stereo not shown) [Compound 183, 4,4,4-trifluoro-2-methyl-1-(2-(4-phenyl-1H-imidazol-2-yl)piperidin-1-yl)butan-1-one] | –
300 to 1000 nM | O=C(N1CCCCC1c1nc(-c2ccccc2)c[nH]1)C12CC(C1)C2 (stereo not shown) [Compound 184, bicyclo[1.1.1]pentan-1-yl(2-(4-phenyl-1H-imidazol-2-yl)piperidin-1-yl)methanone] | –
300 to 1000 nM | O=C(C1CCC1)N1CCCCC1c1ncc(-c2cccc(F)c2)[nH]1 (stereo not shown) [Compound 185, cyclobutyl(2-(5-(3-fluorophenyl)-1H-imidazol-2-yl)piperdin-1-yl)methanone] | –
300 to 1000 nM | O=C(C1CCCC1)N1CCCCC1c1nc(-c2ccccc2)c[nH]1 (stereo not shown) [Compound 186, cyclopentyl(2-(4-phenyl-1H-imidazol-2-yl)piperidin-1-yl)methanone] | –
1000 to 35000 nM | O=C(C1CC1)N1CCCCC1c1nc(-c2ccccc2)c[nH]1 (stereo not shown) [Compound 187, cyclopropyl(2-(4-phenyl-1H-imidazol-2-yl)piperidin-1-yl)methanone] | –
50 to 300 nM | COC(=O)c1ccc(-c2cnc(C3CCCCN3C(=O)C(C)SC)[nH]2)cc1 (stereo not shown) [Compound 188, methyl 4-(2-(1-(2-(methylthio)propanoyl)piperidin-2-yl)-1H-imidazol-5-yl)benzoate] | –
1000 to 35000 nM | CSC(C)C(=O)N1CCCCC1c1nc(-c2ccc(S(=O)(=O)NCCO)cc2)c[nH]1 (stereo not shown) [Compound 189, N-(2-hydroxyethyl)-4-(2-(1-(2-(methylthio)propanoyl)piperidin-2-yl)-1H-imidazol-4-yl)benzenesulfonamide] | –
< 50 nM | CSC(C)C(=O)N1CCCCC1c1ncc(-c2cccc([N+](=O)[O-])c2)[nH]1 (stereo not shown) [Compound 190, 2-(methylthio)-1-(2-(5-(3-nitrophenyl)-1H-imidazol-2-yl)piperidin-1-yl)propan-1-one] | –
1000 to 35000 nM | CSC(C)C(=O)N1CCCCC1c1nc(-c2ccc(NS(C)(=O)=O)cc2)c[nH]1 (stereo not shown) [Compound 191, N-(4-(2-(1-(2-(methylthio)propanoyl)piperidin-2-yl)-1H-imidazol-4-yl)phenyl)methanesulfonamide] | –
< 50 nM | CSC(C)C(=O)N1CCCCC1c1ncc(-c2ccc([N+](=O)[O-])cc2)[nH]1 (stereo not shown) [Compound 192, 2-(methylthio)-1-(2-(5-(4-nitrophenyl)-1H-imidazol-2-yl)piperidin-1-yl)propan-1-one] | –
< 50 nM | Cc1ccc(-c2cnc(C3CCCCN3C(=O)C3CC3(C)C)[nH]2)cc1 (stereo not shown) [Compound 193, (2,2-dimethylcyclopropyl)(2-(5-(p-toly)-1H-imidazol-2-yl)piperidin-1-yl)methanone] | –

EC50 (hTRPM8) | Compound | other results
1000 to 35000 nM | CCC(C)C(=O)N1CCCCC1c1ncc(Br)[nH]1 (stereo not shown) [Compound 194, 1-(2-(5-bromo-1H-imidazol-2-yl)piperidin-1-yl)-2-methylbutan-1-one] | –
< 50 nM | CCC(C)C(=O)N1CCCCC1c1ncc(-c2ccc(Cl)cc2)[nH]1 (stereo not shown) [Compound 195, 1-(2-(5-(4-chlorophenyl)-1H-imidazol-2-yl)piperidin-1-yl)-2-methylbutan-1-one] | –
< 50 nM | CSC(C)C(=O)N1CCCCC1c1ncc(-c2ccc(CC#N)cc2)[nH]1 (stereo not shown) [Compound 196, 2-(4-(2-(1-(2-(methylthio)propanoyl)piperidin-2-yl)-1H-imidazol-5-yl)phenyl)acetonitrile] | –
< 50 nM | CCC(C)C(=O)N1CCCCC1c1ncc(-c2ccc(CC#N)cc2)[nH]1 (stereo not shown) [Compound 197, 2-(4-(2-(1-(2-methylbutanoyl)piperidin-2-yl)-1H-imidazol-5-yl)phenyl)acetonitrile] | –
< 50 nM | CCC(C)C(=O)N1CCCCC1c1ncc(-c2ccc(C#N)cc2)[nH]1 (stereo not shown) [Compound 198] | –
< 50 nM | Cc1ccc(-c2cnc(C3CCCCN3C(=O)C(C)C(C)C)[nH]2)cc1 (stereo not shown) [Compound 199, 2,3-dimethyl-1-(2-(5-(p-tolyl)-1H-imidazol-2-yl)piperidin-1-yl)butan-1-one] | –
50 to 300 nM | CCC(C)C(=O)N1CCCCC1c1ncc(-c2ccccc2C)[nH]1 (stereo not shown) [Compound 200, 2-methyl-1-(2-(5-(o-tolyl)-1H-imidazol-2-yl)piperidin-1-yl)butan-1-one] | –
50 to 300 nM | CCC(C)C(=O)N1CCCCC1c1ncc(-c2cccc(C)c2)[nH]1 (stereo not shown) [Compound 201, 2-methyl-1-(2-(5-(m-tolyl)-1H-imidazol-2-yl)piperidin-1-yl)butan-1-one] | –
50 to 300 nM | CCC(C)C(=O)N1CCCCC1c1ncc(-c2ccc(CO)cc2)[nH]1 (stereo not shown) [Compound 202, 1-(2-(5-(4-(hydroxymethyl)phenyl)-1H-imidazol-2-yl)piperidin-1-yl)-2-methylbutan-1-one] | –
300 to 1000 nM | Cc1ccc(-c2cnc(C3CCCCN3S(=O)(=O)C(C)C)[nH]2)cc1 (stereo not shown) [Compound 203, 1-(isopropylsulfonyl)-2-(5-(p-tolyl)-1H-imidazol-2-yl)piperidine] | –
1000 to 35000 nM | CCC(C)S(=O)(=O)N1CCCCC1c1ncc(-c2ccc(C)cc2)[nH]1 (stereo not shown) [Compound 204, 1-(sec-butylsulfonyl)-2-(5-(p-tolyl)-1H-imidazol-2-yl)piperidine] | –
< 50 nM | CCC(C)C(=O)N1CCCCC1c1ncc(-c2ccc(C)s2)[nH]1 (stereo not shown) [Compound 205, 2-methyl-1-(2-(5-(5-methylthiophen-2-yl)-1H-imidazol-2-yl)piperidin-1-yl)butan-1-one] | –
< 50 nM | CSC(C)C(=O)N1CCNCC1c1ncc(-c2ccc(C)cc2)[nH]1 (stereo not shown) [Compound 206, 2-(methylthio)-1-(2-(5-(p-toly)-1H-imidazol-2-yl)piperazin-1-yl)propan-1-one] | –
< 50 nM | CSC(C)C(=O)N1CCCCC1c1nc(-c2ccc(C)cc2)co1 (stereo not shown) [Compound 207, 2-(methylthio)-1-(2-(4-(p-tolyl)oxazol-2-yl)piperidin-1-yl)propan-1-one] | –
< 50 nM | CCC(C)C(=O)N1CCCCC1c1nc(-c2ccc(C)cc2)co1 (stereo not shown) [Compound 208, 2-methyl-1-(2-(4-(p-tolyl)oxazol-2-yl)piperidin-1-yl)butan-1-one] | –
